Data from PMC5021751, “Discovery of DNA dyes Hoechst 34580 and 33342 as good candidates for inhibiting amyloid beta formation: in silico and in vitro study” (Journal of Computer-Aided Molecular Design, 2016).
Like-named read-outs stand apart in the source and are kept apart here.

Biological target: T1, Aβ42 (amyloid beta) (Homo sapiens, UniProt P05067)
T1 construct: gene APP
Assay: Thioflavin T fibrillization assay with purified Aβ[…] peptide
Format: biochemical

T1 sequence (P05067 672-713 limits assumed): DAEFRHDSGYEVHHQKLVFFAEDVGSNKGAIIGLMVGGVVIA

| SMILES | IC50 [nM] | IC50 (read-out: IC50) [nM] |
| --- | --- | --- |
| CN1CCN(c2ccc3[nH]c(-c4ccc5[nH]c(-c6ccc(N(C)C)cc6)nc5c4)nc3c2)CC1 [Hoechst 34580] | 860 ± 50 |  |
| CCOc1ccc(-c2nc3cc(-c4nc5cc(N6CCN(C)CC6)ccc5[nH]4)ccc3[nH]2)cc1 [Hoechst 33342] |  | 680 ± 50 |
